# According to US20070105878A1, “Purine formulations and methods for managing disorders” (priority 2005, published 2007):
# Key:
# Type in all cases: in vivo, mouse
# CD1: ICR mice [1] = assay: forced swim test in mice
# Procedure: FIG. 2 illustrates forced swim test in mice. Mice are administered illustrative compounds of the invention and subjected to the forced swim test for 6 minutes with activity timed for the duration of the test. Compound 112 was administered 30 minutes prior to the swim test.
# The forced swim test is another commonly used animal model for detecting anti-depressant activity of pharmacological agents. This test is complimentary to the tail suspension test. When mice are required to swim in a container with no route of escape they develop a behavioral despair that is characterized by immobility except for small movements needed to remain afloat. This immobility is thought to reflect a state of lowered ‘mood’ (i.e., depression) in which animals have given up hope of escaping. Forced swim test immobility is attenuated by a variety of clinically active antidepressants.
# (§1) In both assays, antidepressants increase the amount of struggle and the latency until the first extended immobility. These assays are considered to be good predictors for antidepressant activity and identifies nearly all antidepressant classes including tricyclics, SSRIs, 5-HT1A receptor agonists, and MAOIs.
# (§2) CD1: ICR mice from Harlan 12 weeks of age. Animals were dosed with Compound 112, 30 minutes prior to tail suspension analysis or forced swim test.
# Male CD1 mice [2] = assay: colonic propulsion assay (glass bead expulsion test); details: for increase of expulsion time from controls: subcutaneous, 30 minutes prior to glass bead expulsion test
# Description: The gastrointestinal transit model described in this report is a method for evaluating a test compounds ability to alter colonic propulsive motility. This model is designed to identify pharmacological agents that produce inhibitory effects on propulsive motor activity and is an excellent predictor of drugs that may be useful for the therapy of irritable bowel syndrome. This model can be modified to identify antagonists of constipative drugs or diarrhea producing drugs. In this study, Compound 112 was tested for its ability to affect colonic transport.
# Male CD1 mice (Harlan) 12 weeks of age were used for this study. Mice were kept on a 12 hr light dark cycle and fed ad libitum.
# Compound 112 was administered 30 minutes prior to the colonic propulsion study. After dosing, a 3 mm glass bead was inserted through the anus to a depth of 2 cm into the distal colon using a pre-measured plastic rod. […] A cutoff of 30 minutes was used. Data are expressed as the average ±SEM for each treatment. Data were averaged and analyzed by ANOVA followed by a post-hoc Tukey's test with a p value of less then […] indicating a statistical difference.
# Compound 112 was compared to morphine, topfisopam, propentofylline, pentoxyfylline, and theophylline in the colonic propulsion assay. Drugs were administered subcutaneously at the indicated doses 30 minutes prior to the colonic propulsion assay.
# Male CD1 mice [3] = assay: micturition model of overactive bladder; details: 1 hr period after furesomide
# Description: Micturition is a model of overactive bladder and is achieved through complex neurological mechanisms involving somatic, autonomic and central components. Disorders of micturition can roughly be classified as disturbances of bladder storage or of emptying. Failure to store urine may lead to various forms of incontinence, the main forms of which are urge and stress incontinence. Antimuscarinics are the mainstay of pharmacological treatment of the overactive bladder syndrome, which is characterized by urgency, frequency, and urge incontinence. The present study describes the activity of Compound 112 in an animal model of incontinence.
# Male CD1 mice (Harlan Sprague Dawley, Indianapolis, Ind.) 12 weeks of age were used for these studies. This study was multiplexed with the pulmonary inflammation study. Animals were housed five per cage, kept on a standard 12 hr light cycle. Sample size was 6 animals per group.
# Mice were injected with Compound 112 or vehicle solution as described, and then injected with 1 ml of water (s.c). Furesomide (SigmaAldrich) was formulated at a concentration of 1 mg/ml in water and injected ip at a volume of 10 ml/kg within 5 minutes after drug and water administration. […] Data were averaged and analyzed by ANOVA followed by a post-hoc Tukey's test with a p value of […] indicating a statistical difference.
# mice = assay: acetylcholine writhing assay
# Procedure: Experiments were conducted to collect data in an animal model that reflects the gastrointestinal pain component of IBS. In this model, mice were injected intraperitoneally with acetylcholine. Acetylcholine evokes contractions of smooth muscle in the gastrointestinal tract. These contractions are painful and are expressed as a writhing response. Two measurements are made in this model: 1) time to onset of writhing and 2) total writhing time. In these studies, mice were treated with Compound 112 prior to acetylcholine administration and time to onset and total time writhing were measured.
# Compound 112 was tested for its ability to attenuate acetylcholine induce writhing. The anti-writhing response was compared to propentofylline, pentoxyfylline and theophylline. All drugs were administered subcutaneously 30 minutes prior to acetylcholine administration. Acetylcholine was administered at a dose of 3 mg/kg (IP). Acetylcholine writhing was measured for a 10 minute time period. Time to onset and total writhing time were recorded.
# Compound 112 was administered via both routes 30 minutes prior to acetylcholine administration. Acetylcholine was administered at a dose of 3 mg/kg (IP). Acetylcholine writhing was measured for a 10 minute time period. Time to onset and total writhing time were recorded.
# CD1: ICR mice [4] = assay: tail suspension test in mice
# Description: There are a number of animal models of depression that are used to identify pharmacological agents that have clinical potential as anti-depressant agents. One such animal model is the mouse tail-suspension model. Mice, suspended by the tail, will rapidly develop behavioral despair that is characterized by immobility. This immobility is thought to reflect a state of lowered ‘mood’ (i.e., depression) in which animals have given up hope of escaping.
# as §1, §2
# For the tail suspension test, a clip was attached to each mouse tail. Mice (2 per run) were suspended from the pressure transducer in an isolated plexiglass tail suspension chamber. Thirty seconds after suspending the mouse from the transducer, struggle activity was monitored via the transducer that was connected to a computer. The following parameters were measured: 1) number of despair events lasting 5 seconds or longer; 2) Total time in despair; and average time in despair. Data were averaged and analyzed by ANOVA followed by a post-hoc Tukey's test with a p value of less then […] indicating a statistical difference.
# Male C57/B16 mice = assay: experimental autoimmune encephalomyelitis (EAE), animal model of multiple sclerosis, open-field analysis; details: daily administration at 6 and 30 mg/kg
# Description: Experimental autoimmune encephalomyelitis (EAE) is an animal model of multiple sclerosis. This model is produced by administering a myelin basic protein peptide (MBP) fragment that induces an autoimmune response directed to the myelin sheath surrounding motor neurons. Demyelination of neurons within the CNS leads to impaired locomotor function and mirrors symptoms of the human disease. The disease, and the model, appears in exacerbations and remissions and is characterized by loss of nerve conduction and chronic progression of disability. In this study, we assessed the progression of locomotor dysfunction in mice subjected to EAE and treated with an illustrative compound of the invention.
# Male C57/B16 mice (Harlan Sprague Dawley, Indianapolis, Ind.) 8 weeks of age were used for these studies. […]
# Open-field assessments were conducted on days 7, 14, 21 and 28. Mice were evaluated by activity in an open-field activity monitor (Med-Associates-OFA ENV-510). Mice were place in the activity monitor for 15 minutes and a variety of open-field behaviors were monitored including distance traveled, ambulatory time, rearing behavior, time in center of field and stereotypic behavior. Data were averaged and analyzed by ANOVA followed by a post-hoc Tukey's test with a p value of less then […] indicating a statistical difference.
# [5] = subcutaneous, 30 minutes prior to acetylcholine 3 mg/kg IP
smiles,measurement,setting,value
CCOCn1cnc2c1c(=O)n(CCCCC(C)(C)O)c(=O)n2C [Compound 112],anti-depressant activity,CD1: ICR mice [1]; higher doses (≧30 mg/kg),lost
same,antidepressant activity,CD1: ICR mice [1]; lower doses (6 and 10 mg/kg),observed
same,expulsion of a colonically inserted glass bead,"Male CD1 mice [2]; 30 and 100 mg/kg, 30 minutes after administration",significantly slowed
same,extension of expulsion time,"Male CD1 mice [2]; 30 and 100 mg/kg, vs vehicle",> 5 fold
same,increase of expulsion time from controls,Male CD1 mice [2],5 fold
same,number of urination events,Male CD1 mice [3],significantly reduced
same,urinary volume,Male CD1 mice [3],significantly reduced
same,"potency, oral vs subcutaneous administration",mice; 30 minutes prior to acetylcholine 3 mg/kg IP,significantly more potent
same,activity on onset time,"mice; SC, 30 mg/kg",produced activity
same,activity on onset time,"mice; oral, 10 mg/kg",significant activity
same,activity on acetylcholine induced writhing,mice; [5],had activity
same,"overall potency vs theophylline, pentoxyfylline and propentofylline",mice; [5],more potent
same,"potency in attenuating writhing time vs propentofylline, pentoxyfylline and theophylline",mice; [5],significantly more potent
same,"potency in delaying onset of writhing vs propentofylline, pentoxyfylline and theophylline",mice; [5],significantly more potent
same,number of despair events,"CD1: ICR mice [4]; 6 mg/kg, dosed 30 minutes before test",reduced
same,despair time,"CD1: ICR mice [4]; 6 and 30 mg/kg, dosed 30 minutes before test",significantly decreased
same,anti-depressant activity,CD1: ICR mice [4]; higher doses (≧30 mg/kg),lost
same,antidepressant activity,CD1: ICR mice [4]; lower doses (6 and 10 mg/kg),observed
same,development of locomotor dysfunction,Male C57/B16 mice,significantly attenuated
"Cn1c(=O)c2[nH]cnc2n(C)c1=O [theophylline, reference compound]",activity on acetylcholine induced writhing,mice; [5],had activity
"CCCn1cnc2c1c(=O)n(CCCCC(C)=O)c(=O)n2C [propentofylline, reference compound]",activity on acetylcholine induced writhing,mice; [5],had activity
"CCC1C(C)=NN=C(c2ccc(OC)c(OC)c2)c2cc(OC)c(OC)cc21 (centres unmarked) [tofisopam, reference compound]",increase of expulsion time from controls,Male CD1 mice [2],less than 3 fold
"CC(=O)CCCCn1c(=O)c2c(ncn2C)n(C)c1=O [pentoxyfylline, reference compound]",activity on acetylcholine induced writhing,mice; [5],had activity
